Test results as given in EP0923529B1 (Bayer Corporation, priority 1996, dated 1997).
Read-outs that look alike come from different tables or passages of the source.

Columns and labels:
Format in all cases: biochemical
MMP-3 = biological target: T1, MMP-3 (Homo sapiens, UniProt P08254); assay: P218 quenched fluorescence assay (MMP Microfluorometric Profiling Assay), MMP-3; conditions: for IC50: P218 substrate 6 µM, 25 min at 37 °C, pH 6.5; for inhibition at 5 µM: inhibitor at 5 µM, given as I = x %
T1 construct: made in house; host or cells: CHO cells
T1 sequence (P08254 100-477): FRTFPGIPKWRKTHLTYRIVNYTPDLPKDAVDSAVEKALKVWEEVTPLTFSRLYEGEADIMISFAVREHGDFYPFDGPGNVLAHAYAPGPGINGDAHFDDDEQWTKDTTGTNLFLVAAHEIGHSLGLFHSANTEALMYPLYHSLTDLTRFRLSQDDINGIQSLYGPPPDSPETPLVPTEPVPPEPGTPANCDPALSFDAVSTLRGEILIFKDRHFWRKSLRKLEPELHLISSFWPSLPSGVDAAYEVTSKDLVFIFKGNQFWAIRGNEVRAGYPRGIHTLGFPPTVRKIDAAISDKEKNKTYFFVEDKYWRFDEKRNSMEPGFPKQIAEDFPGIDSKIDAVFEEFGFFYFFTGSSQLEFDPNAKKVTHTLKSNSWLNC
Source text: (§1) The P218 quenched fluorescence assay (Microfluorometric Profiling Assay) is a modification of that originally described by C. G. Knight et al., FEBS Letters, 296, 263-266 (1992) for a related substrate and a variety of matrix metalloproteinases (MMPs) in cuvettes. The assay was run with each exemplary compound of the invention and the three MMPs, MMP-3, MMP-9 and MMP-2, analyzed in parallel, adapted as follows for a 96-well microtitre plate and a Hamilton AT® workstation.
(§2) P218 is a synthetic substrate containing a 4-acetyl-7-methoxycoumarin (MCA) group in the N-terminal position and a 3-(2,4-dinitrophenyl)-(L)-2,3-diaminopropionyl (DPA) group internally. This is a modification of a peptide reported by Knight (1992) that was used as a substrate for matrix metalloproteinases. Once the P218 peptide is cleaved (putative clip site at the Ala-Leu bond), the fluorescence of the MCA group can be detected on a fluorometer with excitation at 328 nm and emission at 393 nm. P218 is currently being produced by BACHEM Bioscience, Inc. exclusively for the Bayer Corp. P218 has the structure: H-MCA-Pro-Lys-Pro-Leu-Ala-Leu-DPA-Ala-Arg-NH2 (MW 1332.2)
Recombinant Human CHO Pro-MMP-3: Human CHO pro-stromelysin-257 (pro-MMP-3) was expressed and purified as described by T. J. Housley et al., J. Biol. Chem., 268, 4481-4487 (1993).
Activation of Pro-MMP-3: Pro-MMP-3 at 1.72 µM (100 µg/mL) in an MMP-3 activation buffer consisting of 5 mM Tris at pH 7.5, 5 mM CaCl2, 25 mM NaCl, and 0.005% Brij-35 was activated by incubation with TPCK (N-tosyl-(L)-phenylalanine chloromethyl ketone) trypsin (1:100 w/w to pro-MMP-3) at 25 °C for 30 min. The reaction was stopped by addition of soybean trypsin inhibitor (SBTI; 5:1 w/w to trypsin concentration).
(§3) Hamilton Microlab AT Plus®: The MMP-profiling assay was performed robotically using a Hamilton MicroLab AT Plus®. The Hamilton was programmed to: (1) serially dilute up to 11 potential inhibitors automatically using a 2.5 mM stock solution of the inhibitor in 100% DMSO; (2) distribute substrate followed by inhibitor into a 96-well Cytofluor plate; and (3) add a single enzyme to the plate with mixing to start the reaction. Subsequent plates for each additional enzyme were prepared automatically by beginning the program at the substrate addition point, remixing the diluted inhibitors, and beginning the reaction by addition of enzyme. In this way, all MMP assays were done using the same inhibitor dilutions.
(§4) Millipore Cytofluor II: Following incubation, the plate was read on a Cytofluor II fluorometric plate reader with excitation at 340 nm and emission at 395 nm with the gain set at 80.
(§5) Microfluorometric Reaction Buffer (MRB): Dilutions of test compounds, enzymes and P218 substrate for the microfluorometric assay were made in microfluorometric reaction buffer (MRB) consisting of 50 mM 2-(N-morpholino)ethanesulfonic acid (MES) at pH 6.5 with 10 mM CaCl2, 150 mM NaCl, 0.005 % Brij-35 and 1% DMSO.
(§6) MMP Microfluorometric Profiling Assay. The assay was done with a final P218 concentration of 6 µM, approximately 0.5 to 0.8 nM of activated MMP (one MMP per 96-well plate), and with variable inhibitor concentrations. The Hamilton MicroLab AT Plus® was programmed to serially dilute up to 11 compounds from a 2.5 mM stock (100% DMSO) to 10-times the final compound concentrations in the assay. Initially, the instrument delivered various amounts of microfluorometric reaction buffer (MRB) to a 96-tube rack of 1 mL Marsh dilution tubes. The instrument picked up 20 µL inhibitor (2.5 mM) and mixed it with buffer in row A of the Marsh rack, resulting in a 50 µM inhibitor concentration. The inhibitors were then serially diluted to 10, 5, 1, 0.2, 0.05 and 0.01 µM. […] The instrument re-mixed and loaded 14.5 µL of diluted compound from rows A to G in the Marsh rack to the corresponding rows in the microtiter plate.

MMP-9 = biological target: T2, MMP-9 (Homo sapiens, UniProt P14780); assay: P218 quenched fluorescence assay (MMP Microfluorometric Profiling Assay), MMP-9; conditions: for IC50: P218 substrate 6 µM, 25 min at 37 °C, pH 6.5; for inhibition at 5 µM: read-out: MMP-9 % inhibition at 5 µM, inhibitor at 5 µM, given as I = x %
T2 construct: made in house
T2 sequence (P14780 107-707 limits assumed): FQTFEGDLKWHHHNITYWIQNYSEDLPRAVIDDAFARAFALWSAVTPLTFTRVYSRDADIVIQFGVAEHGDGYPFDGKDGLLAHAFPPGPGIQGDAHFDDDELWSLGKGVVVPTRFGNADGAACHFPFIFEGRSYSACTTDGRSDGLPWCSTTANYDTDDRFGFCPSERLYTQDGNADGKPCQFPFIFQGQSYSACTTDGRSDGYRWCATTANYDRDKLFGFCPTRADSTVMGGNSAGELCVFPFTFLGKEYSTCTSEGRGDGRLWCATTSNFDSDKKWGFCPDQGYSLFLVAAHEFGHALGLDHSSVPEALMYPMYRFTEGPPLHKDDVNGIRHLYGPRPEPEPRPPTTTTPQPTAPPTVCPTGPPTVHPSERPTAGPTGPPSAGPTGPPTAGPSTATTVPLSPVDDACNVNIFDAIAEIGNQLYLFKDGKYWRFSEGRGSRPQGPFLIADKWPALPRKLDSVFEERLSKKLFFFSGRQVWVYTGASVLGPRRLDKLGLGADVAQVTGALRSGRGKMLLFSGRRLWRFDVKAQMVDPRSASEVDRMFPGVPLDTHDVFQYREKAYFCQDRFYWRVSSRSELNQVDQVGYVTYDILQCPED
Source text: as §1, §2
Human Recombinant Pro-MMP-9: Human recombinant pro-gelatinase B (pro-MMP-9) derived from U937 cDNA as described by S. M. Wilhelm et al., J. Biol. Chem., 264, 17213-17221 (1989) was expressed as the full-length form using a baculovirus protein expression system. The pro-enzyme was purified using methods previously described by M.S. Hibbs, et al., J. Biol. Chem., 260, 2493-500 (1984).
Activation of Pro-MMP-9 : Pro-MMP-9 (20 µg/mL) in an MMP-9 activation buffer consisting of 50 mM Tris at pH 7.4, 150 mM NaCl, 10 mM CaCl2 and 0.005% Brij-35 was activated by incubation with a 0.5 mM p-aminophenylmercuric acetate (APMA) for 3.5 h at 37 °C. The enzyme was dialyzed against the same buffer to remove APMA.
as §3, §4, §5
as §6, with “plate. […]” for “plate.”

MMP-2 = biological target: T3, MMP-2 (Homo sapiens, UniProt P08253); assay: P218 quenched fluorescence assay (MMP Microfluorometric Profiling Assay), MMP-2; conditions: for inhibition at 5 µM: read-out: MMP-2 % inhibition at 5 µM, inhibitor at 5 µM, given as I = x %
T3 sequence (P08253 110-660): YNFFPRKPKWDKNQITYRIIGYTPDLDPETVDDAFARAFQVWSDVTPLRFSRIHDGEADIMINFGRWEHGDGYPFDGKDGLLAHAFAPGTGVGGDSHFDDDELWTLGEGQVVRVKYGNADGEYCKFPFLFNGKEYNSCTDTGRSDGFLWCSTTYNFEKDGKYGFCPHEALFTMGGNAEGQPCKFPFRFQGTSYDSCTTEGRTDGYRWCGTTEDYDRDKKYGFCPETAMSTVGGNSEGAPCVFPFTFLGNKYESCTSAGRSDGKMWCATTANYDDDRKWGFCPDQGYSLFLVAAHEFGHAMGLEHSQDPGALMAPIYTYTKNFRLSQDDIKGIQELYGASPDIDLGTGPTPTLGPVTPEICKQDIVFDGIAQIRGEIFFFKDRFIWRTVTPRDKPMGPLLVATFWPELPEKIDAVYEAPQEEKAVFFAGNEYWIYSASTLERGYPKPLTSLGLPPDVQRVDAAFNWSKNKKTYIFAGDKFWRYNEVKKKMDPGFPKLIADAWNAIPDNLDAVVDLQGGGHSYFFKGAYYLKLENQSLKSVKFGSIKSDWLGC

[1] = P218 substrate 6 µM, 25 min at 37 °C, pH 6.5, read-out: MMP-2 IC50

Row | Structure (SMILES) | IC50 (MMP-3) | IC50 (MMP-9) | IC50 (MMP-2; [1]) | inhibition at 5 µM (MMP-3) | IC50 (MMP-2) | inhibition at 5 µM (MMP-9) | inhibition at 5 µM (MMP-2)
1 | O=C(CC(CCCc1ccccc1)C(=O)O)c1ccc(C#CCO)cc1 (racemic) [Example 1, 4-(4-(3-hydroxyprop-1-ynyl)phenyl)-4-oxo-2-(3-phenylpropyl)butyric acid] | 3300 nM | 1850 nM | 485 nM |  |  |  | 
2 | O=C(CC(CCN1C(=O)c2ccccc2C1=O)C(=O)O)c1ccc(Br)cc1 (stereo not shown) [Compound B, 4-(4-bromophenyl)-4-oxo-2-(2-phthalimidoethyl) butyric acid, reference compound] |  | 1450 nM |  | 46% | 2400 nM |  | 
3 | O=C(CC(CCCc1ccccc1)C(=O)O)c1ccccc1 (stereo not shown) [Compound C, 4-phenyl-4-oxo-2-(3-phenylpropyl)butyric acid, reference compound] |  |  |  | 20% |  | 23% | 36%
4 | O=C(CC(CCN1C(=O)c2ccccc2C1=O)C(=O)O)c1ccccc1 (stereo not shown) [Compound D, 4-phenyl-4-oxo-2-(2-phthalimidoethyl)butyric acid, reference compound] | 5000 nM | 1000 nM |  |  | 1400 nM |  | 
5 | CC(C)(C)[Si](C)(C)OCCCCC#Cc1ccc(C(=O)CC(CCN2C(=O)c3ccccc3C2=O)C(=O)O)cc1 (stereo not shown) [Compound E, reference compound] | 5100 nM | 5050 nM | 1450 nM |  |  |  | 
6 | CCCCCCCCCCCCCCOc1ccc(C(=O)CC(CCN2C(=O)c3ccccc3C2=O)C(=O)O)cc1 (stereo not shown) [Compound F, 4-(4-tetradecyloxyphenyl)-4-oxo-2-(2-phthalimidoethyl)butyric acid, reference compound] |  |  |  | 18% |  | 6% | 16%
7 | COc1ccc(C(=O)CC(CCN2C(=O)c3ccccc3C2=O)C(=O)O)cc1 (stereo not shown) [Compound G, 4-(4-methoxyphenyl)-4-oxo-2-(2-phthalimidoethyl)butyric acid, reference compound] |  |  |  | 29% |  | 46% | 48%
8 | CCCCC#Cc1ccc(C(=O)CC(CCCc2ccccc2)C(=O)O)cc1 (stereo not shown) [Example 2, 4-(4-(hex-1-ynyl)phenyl)-4-oxo-2-(3-phenylpropyl)butyric acid] | 1870 nM | 1570 nM |  |  | 460 nM |  | 
9 | O=C(CC(CCCc1ccccc1)C(=O)O)c1ccc(C#CCCCCO)cc1 (stereo not shown) [Example 3, 4-(4-(6-hydroxyhex-12-ynyl)phenyl)-4-oxo-2-(3-phenylpropyl)butyric acid] |  | 4350 nM | 640 nM | 43% |  |  | 
10 | CCCCC#Cc1ccc(C(=O)CC(CCN2C(=O)c3ccccc3C2=O)C(=O)O)cc1 (stereo not shown) [Example 4] | 125 nM | 20 nM |  |  | 42 nM |  | 
11 | O=C(CC(CCN1C(=O)c2ccccc2C1=O)C(=O)O)c1ccc(C#CCCCCO)cc1 (stereo not shown) [Example 5, 4-(4-(6-hydroxyhex-1-ynyl)phenyl)-4-oxo-2-(2-phthalimidoethyl)butyric acid] | 870 nM | 150 nM |  |  | 92 nM |  | 
12 | O=C(CC(CCN1C(=O)c2ccccc2C1=O)C(=O)O)c1ccc(C#CCO)cc1 (stereo not shown) [Example 6, 4-(4-(3-hydroxyprop-1-ynyl)phenyl)-4-oxo-2-(2-phthalimidoethyl)butyric acid] | 565 nM | 76 nM |  |  | 130 nM |  | 
13 | CCCCCCc1ccc(C(=O)CC(CCN2C(=O)c3ccccc3C2=O)C(=O)O)cc1 (stereo not shown) [Example 7, 4-(4-hexylphenyl)-4-oxo-2-(2-phthalimidoethyl) butyric acid] | 1040 nM | 400 nM |  |  | 295 nM |  | 
14 | CCCCCCCOc1ccc(C(=O)CC(CCN2C(=O)c3ccccc3C2=O)C(=O)O)cc1 (stereo not shown) [Example 10, 4-(4-heptyloxyphenyl)-4-oxo-2-(2-phthalimidoethyl) butyric acid] | 61 nM | 85 nM |  |  | 40 nM |  | 
15 | CCCCCCOc1ccc(C(=O)CC(CCN2C(=O)c3ccccc3C2=O)C(=O)O)cc1 (stereo not shown) [Example 11, 4-(4-hexyloxyphenyl)-4-oxo-2-(2-phthalimidoethyl) butyric acid] | 114 nM | 68 nM |  |  | 79 nM |  | 
16 | CCCCCCCCCCOc1ccc(C(=O)CC(CCN2C(=O)c3ccccc3C2=O)C(=O)O)cc1 (stereo not shown) [Example 12, 4-(4-decyloxyphenyl)-4-oxo-2-(2-phthalimidoethyl) butyric acid] |  | 360 nM |  |  |  |  | 
17 | O=C(CC(CCN1C(=O)c2ccccc2C1=O)C(=O)O)c1ccc(OCCOCc2ccccc2)cc1 (stereo not shown) [Example 13, 4-(4-(2-benzyloxyethoxy)phenyl)-4-oxo-2-(2-phthalimidoethyl)butyric acid] | 82 nM | 355 nM |  |  | 53 nM |  | 
